Experimental data from PubChem BioAssay (NCI).
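How tested: cells in 96-well plates exposed to compound for 48 hours at five concentrations. The concentration for full growth arrest is given as TGI.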

Tests used:
Assay in all cases: NCI-60 cell line screen, 48 h
LOX IMVI melanoma = test system: LOX IMVI melanoma
COLO 205 colon = test system: COLO 205 colon
A498 renal = test system: A498 renal
SF-295 CNS = test system: SF-295 CNS
SNB-75 CNS = test system: SNB-75 CNS
PC-3 prostate = test system: PC-3 prostate
CAKI-1 renal = test system: CAKI-1 renal
SW-620 colon = test system: SW-620 colon
NCI-H226 lung = test system: NCI-H226 lung
IGROV1 ovarian = test system: IGROV1 ovarian
HOP-62 NSCLC = test system: HOP-62 NSCLC
OVCAR-4 ovarian = test system: OVCAR-4 ovarian
SNB-19 CNS = test system: SNB-19 CNS
ACHN renal = test system: ACHN renal
MDA-MB-231 breast = test system: MDA-MB-231 breast
SR leukemia = test system: SR leukemia
UO-31 renal = test system: UO-31 renal
MOLT-4 leukemia = test system: MOLT-4 leukemia
EKVX NSCLC = test system: EKVX NSCLC
SK-MEL-5 melanoma = test system: SK-MEL-5 melanoma
NCI/ADR-RES ovarian = test system: NCI/ADR-RES ovarian
CCRF-CEM leukemia = test system: CCRF-CEM leukemia
SF-539 CNS = test system: SF-539 CNS
SN12C renal = test system: SN12C renal
K-562 leukemia = test system: K-562 leukemia
RPMI-8226 leukemia = test system: RPMI-8226 leukemia
OVCAR-5 ovarian = test system: OVCAR-5 ovarian
786-0 renal = test system: 786-0 renal
RXF 393 renal = test system: RXF 393 renal
HCT-15 colon = test system: HCT-15 colon
OVCAR-3 ovarian = test system: OVCAR-3 ovarian
NCI-H522 lung = test system: NCI-H522 lung
TK-10 renal = test system: TK-10 renal
UACC-62 melanoma = test system: UACC-62 melanoma
MALME-3M melanoma = test system: MALME-3M melanoma
MDA-MB-435 = test system: MDA-MB-435
DU-145 prostate = test system: DU-145 prostate
NCI-H460 lung = test system: NCI-H460 lung
MCF7 breast = test system: MCF7 breast
UACC-257 melanoma = test system: UACC-257 melanoma
OVCAR-8 ovarian = test system: OVCAR-8 ovarian
SF-268 CNS = test system: SF-268 CNS
BT-549 breast = test system: BT-549 breast
HT29 colon = test system: HT29 colon
T-47D breast = test system: T-47D breast
HOP-92 NSCLC = test system: HOP-92 NSCLC
NCI-H23 lung = test system: NCI-H23 lung
M14 melanoma = test system: M14 melanoma
U251 CNS = test system: U251 CNS
SK-OV-3 ovarian = test system: SK-OV-3 ovarian
KM12 colon = test system: KM12 colon
SK-MEL-28 melanoma = test system: SK-MEL-28 melanoma
HS 578T breast = test system: HS 578T breast
HCT-116 colon = test system: HCT-116 colon
A549 NSCLC = test system: A549 NSCLC
SK-MEL-2 melanoma = test system: SK-MEL-2 melanoma
HL-60(TB) leukemia = test system: HL-60(TB) leukemia

SMILES: Cc1cc(NN)nc2n[nH]c(N)c12
- TGI (LOX IMVI melanoma): > 100 µM
- TGI (COLO 205 colon): > 100 µM
- TGI (A498 renal): > 100 µM
- TGI (SF-295 CNS): > 100 µM
- TGI (SNB-75 CNS): > 100 µM
- TGI (PC-3 prostate): > 100 µM
- TGI (CAKI-1 renal): > 100 µM
- TGI (SW-620 colon): > 100 µM
- TGI (NCI-H226 lung): > 100 µM
- TGI (IGROV1 ovarian): > 100 µM
- TGI (HOP-62 NSCLC): > 100 µM
- TGI (OVCAR-4 ovarian): > 100 µM
- TGI (SNB-19 CNS): > 100 µM
- TGI (ACHN renal): > 100 µM
- TGI (MDA-MB-231 breast): > 100 µM
- TGI (SR leukemia): > 100 µM
- TGI (UO-31 renal): > 100 µM
- TGI (MOLT-4 leukemia): > 100 µM
- TGI (EKVX NSCLC): > 100 µM
- TGI (SK-MEL-5 melanoma): > 100 µM
- TGI (NCI/ADR-RES ovarian): > 100 µM
- TGI (CCRF-CEM leukemia): > 100 µM
- TGI (SF-539 CNS): > 100 µM
- TGI (SN12C renal): > 100 µM
- TGI (K-562 leukemia): > 100 µM
- TGI (RPMI-8226 leukemia): > 100 µM
- TGI (OVCAR-5 ovarian): > 100 µM
- TGI (786-0 renal): > 100 µM
- TGI (RXF 393 renal): > 100 µM
- TGI (HCT-15 colon): > 100 µM
- TGI (OVCAR-3 ovarian): > 100 µM
- TGI (NCI-H522 lung): > 100 µM
- TGI (TK-10 renal): > 100 µM
- TGI (UACC-62 melanoma): > 100 µM
- TGI (MALME-3M melanoma): > 100 µM
- TGI (MDA-MB-435): > 100 µM
- TGI (DU-145 prostate): > 100 µM
- TGI (NCI-H460 lung): > 100 µM
- TGI (MCF7 breast): > 100 µM
- TGI (UACC-257 melanoma): > 100 µM
- TGI (OVCAR-8 ovarian): > 100 µM
- TGI (SF-268 CNS): > 100 µM
- TGI (BT-549 breast): > 100 µM
- TGI (HT29 colon): > 100 µM
- TGI (T-47D breast): > 100 µM
- TGI (HOP-92 NSCLC): > 100 µM
- TGI (NCI-H23 lung): > 100 µM
- TGI (M14 melanoma): > 100 µM
- TGI (U251 CNS): > 100 µM
- TGI (SK-OV-3 ovarian): > 100 µM
- TGI (KM12 colon): > 100 µM
- TGI (SK-MEL-28 melanoma): > 100 µM
- TGI (HS 578T breast): > 100 µM
- TGI (HCT-116 colon): > 100 µM
- TGI (A549 NSCLC): > 100 µM
- TGI (SK-MEL-2 melanoma): > 100 µM

SMILES: OC1CCN(c2c3ccccc3nc3ccccc23)CC1
- TGI (LOX IMVI melanoma): > 100 µM
- TGI (COLO 205 colon): 9.45 µM
- TGI (A498 renal): 35.6 µM
- TGI (HL-60(TB) leukemia): > 100 µM
- TGI (SF-295 CNS): 72.9 µM
- TGI (SNB-75 CNS): 44.7 µM
- TGI (PC-3 prostate): > 100 µM
- TGI (CAKI-1 renal): 50.5 µM
- TGI (SW-620 colon): > 100 µM
- TGI (NCI-H226 lung): > 100 µM
- TGI (IGROV1 ovarian): 40.6 µM
- TGI (HOP-62 NSCLC): > 100 µM
- TGI (OVCAR-4 ovarian): 36.6 µM
- TGI (SNB-19 CNS): 75 µM
- TGI (ACHN renal): 26.4 µM
- TGI (MDA-MB-231 breast): 84.9 µM
- TGI (SR leukemia): > 100 µM
- TGI (MOLT-4 leukemia): > 100 µM
- TGI (EKVX NSCLC): > 100 µM
- TGI (SK-MEL-5 melanoma): 35.6 µM
- TGI (NCI/ADR-RES ovarian): > 100 µM
- TGI (SF-539 CNS): > 100 µM
- TGI (SN12C renal): > 100 µM
- TGI (K-562 leukemia): > 100 µM
- TGI (RPMI-8226 leukemia): > 100 µM
- TGI (OVCAR-5 ovarian): > 100 µM
- TGI (786-0 renal): > 100 µM
- TGI (RXF 393 renal): 17.5 µM
- TGI (HCT-15 colon): 39.7 µM
- TGI (OVCAR-3 ovarian): > 100 µM
- TGI (NCI-H522 lung): 7.42 µM
- TGI (TK-10 renal): 22.1 µM
- TGI (UACC-62 melanoma): 99.3 µM
- TGI (MALME-3M melanoma): 36.9 µM
- TGI (MDA-MB-435): 54.9 µM
- TGI (DU-145 prostate): > 100 µM
- TGI (NCI-H460 lung): 50.9 µM
- TGI (MCF7 breast): 10.3 µM
- TGI (UACC-257 melanoma): 40.8 µM
- TGI (OVCAR-8 ovarian): 79 µM
- TGI (SF-268 CNS): 34 µM
- TGI (BT-549 breast): 41.1 µM
- TGI (HT29 colon): 5.44 µM
- TGI (T-47D breast): 4.78 µM
- TGI (HOP-92 NSCLC): > 100 µM
- TGI (NCI-H23 lung): > 100 µM
- TGI (M14 melanoma): > 100 µM
- TGI (U251 CNS): 51.1 µM
- TGI (SK-OV-3 ovarian): 82.7 µM
- TGI (KM12 colon): > 100 µM
- TGI (SK-MEL-28 melanoma): 5.52 µM
- TGI (HS 578T breast): > 100 µM
- TGI (HCT-116 colon): > 100 µM
- TGI (A549 NSCLC): > 100 µM
- TGI (SK-MEL-2 melanoma): 27.6 µM
